Laboratory results reported in paper PMC11436104 (Toxins, 2024).
Read-outs that look alike come from different tables or passages of the source. *1 amine or outer side, *2 acyl side, *3 side chain or, on linkers, in order; H or OH if unused. Where a SMILES comes first, the peptide text is derived from it. Bridges are numbered along the chain shown (N, C = ends). [ ]: non-standard residue; d: D form. Adda = CO[C@@H](Cc1ccccc1)[C@@H](C)/C=C(C)/C=C/[C@H](N[*:1])[C@H](C)C(=O)[*:2]; dAsp(3S-Me) = C[C@H](C(=O)[*:3])[C@@H](N[*:1])C(=O)[*:2]; d(γGlu) = O=C(O)[C@@H](CCC(=O)[*:2])N[*:1]; hTyr = N[C@@H](CCc1ccc(O)cc1)C(=O)O; NMeA = CN[C@@H](C)C(=O)O; NMeDha = C=C(NC)C(=O)O; CO = O=C([*:1])[*:2]

Key:
[1] = Interaction with the air–water interface (Langmuir trough, no lipids); assay type: physicochemical; settings: absence of lipids, 0–30 µM injected, 25 °C, pH 7.5
Protocol: (§1) Lateral pressure measurements were carried out in a Langmuir trough (MicroTrough-S system; Kibron, Helsinki, Finland) at room temperature (25 °C) under constant stirring. The aqueous sub-phase was 500 µL 10 mM Hepes, 200 mM NaCl, and pH 7.5.

[2] = Insertion into lipid monolayer (Langmuir trough, surface pressure); assay type: physicochemical; settings: for insertion kinetics into the lipid monolayer (surface pressure increase): 20 µM, initial pressure ~11 mN/m; for critical pressure of insertion: extrapolation to zero pressure variation (ΔΠ = 0), 20 µM CCP
Protocol: as §1
To create lipid monolayers, dioleylposphatidylcholine and cholesterol (70:30) were dissolved together in chloroform/methanol (2:1, v/v) and gently spread over the sub-phase. The desired initial surface pressure was obtained by changing the amounts of the lipid mixture applied to the air–water interface. After solvent evaporation (10 min), each CCP was separately injected through a hole that was connected to the sub-phase, at a final concentration in the Langmuir trough of 20 µM. The changes in surface pressure versus time were recorded until a stable signal was obtained. […] The increase in the surface pressure (∆Π) was plotted versus the initial pressure (Π0), and the critical pressures were determined using linear regression with Prism 5 software (GraphPad, Inc., La Jolla, CA, USA).

[3] = tested on: NHAs; test: Cell morphology, light microscopy (phase contrast); assay type: cell-based, human; settings: evident already at 1 µM, 24 h, 100× magnification
[4] = tested on: NHAs; test: Cytoskeleton immunostaining (microfilaments, microtubules), confocal microscopy; assay type: cell-based, human; settings: 10 µM, 24 h
Protocol: (§2) To determine the influence of the CCPs on actin microfilament and microtubule organization, the cells were labeled with rhodamine-conjugated phalloidin (Molecular Probes, Cat. # R415), and mouse monoclonal anti-bovine α-tubulin antibodies (Molecular Probes Cat. # A11126) and secondary Alexa-488 goat anti-mouse IgG (Molecular Probes Cat. # A-11017), respectively. The cells (3000/well) were plated into 16-well plates (Culture Well Chambered Coverglass for Cell Culture; […].
(§3) The cells in all the experiments were exposed to the CCPs for an additional 24 h in the CO2 incubator at 37 °C in a 5% CO2 atmosphere before they were fixed.
(§4) Fixing and staining. The cells were washed in phosphate-buffered saline (PBS) and fixed in 3.7% paraformaldehyde in either PBS (37 °C, 30 min; for microfilaments, microtubules, nestin) or in ice-cold methanol (4 °C, 10 min; for GFAP, desmoplakin I+II). Then the cells were permeabilized in PBS containing 0.1% Triton X-100 (v/v; Merck, Germany) for 20 min and blocked in 4% bovine serum albumin (Sigma) at room temperature for 10 min. For desmoplakin I+II visualization, the cells were blocked in 10% fetal bovine serum (Sigma) for 60 min without cell permeabilization. Microfilaments were stained with rhodamine-conjugated phalloidin (1:40) for 30 min at room temperature. Microtubules were visualized by immunostaining using an anti-α-tubulin antibody overnight at 4 °C (1:200 in PBS containing Ca^2+, 0.1% [v/v] Tween-20) and the secondary antibodies labeled with Alexa-488 goat anti-mouse IgG (1:1000; 30 min at room temperature). Intermediate filaments were stained using anti-nestin (1:500; overnight at 4 °C) and anti-GFAP (1:500, overnight at 4 °C) antibodies. The anti-nestin-labeled cells were visualized using secondary antibodies labeled with Alexa-488 goat anti-mouse IgG and the anti-GFAP-labeled cells with Alexa-488 anti-rabbit IgG (1:1000 dilution, room temperature, 30 min). Desmoplakin I+II were stained with a mouse anti-desmoplakin I+II antibody (1:500 dilution; room temperature, 60 min) and visualized with Alexa-488 goat anti-mouse IgG (1:1000 dilution; room temperature, 30 min). The cell nuclei were stained with To-Pro-3 (Molecular Probes; 1:1000 dilution; room temperature, 30 min). After each step, the samples were washed three times with PBS. Finally, all the cell preparations were immersed in an antifade reagent (Prolong Gold; Molecular Probes) to prevent photobleaching.
(§5) Microscopy. […] The cell preparations were also examined under light microscopy (Eclipse TE 3000; Nikon, Japan), and the images were recorded under phase contrast and epifluorescence (i.e., B-2A and G-2A filters, respectively).

[5] = tested on: U87-MG cells; test: as above; assay type: cell-based, human; settings: 10 µM, 24 h
Protocol: as §2, §3, §4, §5

[6] = tested on: U87-MG cells; test: Intermediate filament immunostaining (nestin, GFAP), confocal microscopy; assay type: cell-based, human
Protocol: (§6) For the intermediate filaments, visualization at 1 µM MC-LR was used as the positive control. The cells were stained with rabbit monoclonal anti-GFAP (Merck Millipore, Bedford, MA, USA, Cat. # AB5804) and secondary Alexa-488 goat anti-rabbit IgG (Molecular Probes, Cat. # A-11034) antibodies and with mouse monoclonal anti-nestin (Merck Millipore, Cat. # MAB5326) and secondary Alexa-488 goat anti-mouse IgG (Molecular Probes, Cat. # A-11017) antibodies.
as §3, §4, §5

[7] = tested on: U87-MG cells; test: Cell morphology, light microscopy (phase contrast); assay type: cell-based, human
[8] = tested on: NHAs; test: Intermediate filament immunostaining (nestin, GFAP), confocal microscopy; assay type: cell-based, human
Protocol: as §6, §3, §4, §5

| Structure (SMILES) | insertion kinetics into the lipid monolayer (surface pressure increase) [2] | critical pressure of insertion [2] | morphological changes under light microscopy [3] | microfilament (actin) organization [5] | further results |
| --- | --- | --- | --- | --- | --- |
| CC[C@H](C)[C@@H]1NC(=O)[C@H](Cc2ccc(OC)cc2)N(C)C(=O)[C@H]([C@@H](C)O)N2C(=O)[C@H](CC[C@H]2O)NC(=O)[C@H](CC(C)C)NC(=O)[C@@H](NC(=O)[C@H](CCC(N)=O)NC(=O)[C@H](CCc2ccc(O)cc2)NC(=O)[C@@H](O)CO)[C@@H](C)OC1=O | interacted rapidly with the monolayer | 34.2 mN/m | formation of twisted astrocytic outgrowths | aggregation of the cortical microfilaments along the basal membrane and degradation of the membrane ruffles | concentration at which saturation of the air–water interface was observed [1]: 25 µM; microfilament and microtubule organization [4]: strong cytolytic effects on the NHAs, with the collapse of the microfilaments in the center of the cell; microtubule organization [5]: the microtubules were reorganized and concentrated around the nucleus; GFAP filament organization ([6]; U87-MG, 24 h): concentration of the GFAP filaments was observed along the entire cell body |
| C=C1C(=O)N[C@H](C)C(=O)N[C@@H](CC(C)C)C(=O)N[C@@H](C(=O)O)[C@H](C)C(=O)N[C@@H](CCCNC(=N)N)C(=O)N[C@@H](/C=C/C(C)=C/[C@H](C)[C@H](Cc2ccccc2)OC)[C@H](C)C(=O)N[C@@H](C(=O)O)CCC(=O)N1C [MC-LR, Microcystin-LR, reference compound] (R[Adda][d(γGlu)][NMeDha][dA]L[dAsp(3S-Me)]-OH; lactam N-7) |  |  |  |  | morphological changes under light microscopy [7]: loss of astrocytic domain organization, but also in a reduction in cell numbers; nestin organization [8]: most intense nestin concentration; GFAP filament organization [6]: concentration of the GFAP filaments was observed along the entire cell body |
| CC(C)[C@@H]1NC(=O)[C@H](NC(=O)N[C@@H](CCCNC(=N)N)C(=O)O)CCCCNC(=O)[C@H](Cc2ccccc2)NC(=O)[C@H](C)N(C)C(=O)[C@H](CCc2ccc(O)cc2)NC1=O [anabaenopeptin B] ({Arg-CO}-[dK]V[hTyr][NMeA]F; lactam 1-C) | interacted rapidly with the monolayer | 27.1 mN/m | formation of twisted astrocytic outgrowths |  | GFAP immunolabeling, cell shape ([8]; NHAs, 24 h): characteristic twisted outgrowths |
| CC[C@H](C)[C@@H]1NC(=O)[C@H](NC(=O)N[C@@H](CCCNC(=N)N)C(=O)O)CCCCNC(=O)[C@H](Cc2ccccc2)NC(=O)[C@H](C)N(C)C(=O)[C@H](CCc2ccc(O)cc2)NC1=O [anabaenopeptin F] ({Arg-CO}-[dK]I[hTyr][NMeA]F; lactam 1-C) |  |  |  | actin aggregation |  |
